In the assay the target is hBChE (Homo sapiens, UniProt P06276). In words: Ellman's assay. The class given is biochemical. A general note: Ellman's reagent forms a yellow product with free thiols.

Each structure is given as a SMILES string.

The IC50 is the concentration needed to halve the response being measured. Read a low IC50 as inhibition by little substance.

hBChE, sequence (P06276 29-602): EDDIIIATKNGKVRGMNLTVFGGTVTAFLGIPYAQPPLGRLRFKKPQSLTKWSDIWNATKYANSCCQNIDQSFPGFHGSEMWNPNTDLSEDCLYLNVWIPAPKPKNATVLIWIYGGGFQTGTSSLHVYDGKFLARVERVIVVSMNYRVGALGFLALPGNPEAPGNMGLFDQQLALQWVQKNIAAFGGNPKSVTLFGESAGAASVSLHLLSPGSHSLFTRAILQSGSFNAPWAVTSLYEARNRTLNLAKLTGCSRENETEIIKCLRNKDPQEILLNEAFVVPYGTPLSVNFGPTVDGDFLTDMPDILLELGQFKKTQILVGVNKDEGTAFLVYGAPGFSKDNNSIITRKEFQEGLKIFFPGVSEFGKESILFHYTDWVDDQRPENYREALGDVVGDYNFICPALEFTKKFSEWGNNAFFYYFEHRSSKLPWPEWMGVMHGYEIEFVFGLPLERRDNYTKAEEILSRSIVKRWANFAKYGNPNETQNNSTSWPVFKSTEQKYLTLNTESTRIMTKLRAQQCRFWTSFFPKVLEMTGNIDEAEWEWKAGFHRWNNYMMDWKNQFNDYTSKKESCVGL

In the case of `CN1c2ccc(OC(=O)NCCCCCCN3CCOC(CF)C3)cc2CN2CCc3ccccc3C21` (racemic) [compound 2, 13‐Methyl‐5,8,13,13a‐tetrahydro‐6H‐isoquinolino[1,2‐b]quinazolin‐10‐yl‐{6‐[2‐(fluoromethyl)morpholino]‐hexyl}carbamate], the midpoint of inhibition, the IC50, lay at 66.6 nM.

The values are drawn from publication PMC8247983 (Chemmedchem, 2021).
